Source: BigSolDB 2.1

C[C@@H]1OC(=O)[C@H](C)OC1=O
Settings	solubility (mole fraction)
in acetone, 278.95 K	0.217
in acetone, 286.95 K	0.247
in acetone, 290.65 K	0.265
in acetone, 294.65 K	0.283
in acetone, 299.35 K	0.307
in acetone, 304.95 K	0.335
in acetone, 309.15 K	0.36
in acetone, 314.35 K	0.394
in acetone, 319.05 K	0.423
in acetone, 323.35 K	0.455
in acetone, 328.25 K	0.49
in ethanol, 283.95 K	0.00281
in ethanol, 288.65 K	0.00423
in ethanol, 295.35 K	0.00878
in ethanol, 299.95 K	0.0135
in ethanol, 303.45 K	0.031
in ethanol, 310.15 K	0.044
in ethanol, 314.65 K	0.0569
in ethanol, 319.95 K	0.081
in ethanol, 325.15 K	0.115
in ethanol, 329.25 K	0.161
in ethanol, 333.25 K	0.258
in ethanol, 336.45 K	0.337
in ethyl acetate, 277.05 K	0.115
in ethyl acetate, 282.35 K	0.131
in ethyl acetate, 287.65 K	0.147
in ethyl acetate, 296.15 K	0.178
in ethyl acetate, 301.65 K	0.199
in ethyl acetate, 305.15 K	0.221
in ethyl acetate, 308.35 K	0.242
in ethyl acetate, 313.15 K	0.272
in ethyl acetate, 318.25 K	0.311
in ethyl acetate, 324.95 K	0.369
in ethyl acetate, 331.35 K	0.436
in ethyl acetate, 336.35 K	0.491
in isopropanol, 279.65 K	0.00822
in isopropanol, 290.95 K	0.0131
in isopropanol, 295.65 K	0.017
in isopropanol, 299.95 K	0.0208
in isopropanol, 304.15 K	0.0256
in isopropanol, 309.35 K	0.0338
in isopropanol, 314.15 K	0.0455
in isopropanol, 318.65 K	0.0605
in isopropanol, 323.65 K	0.0854
in isopropanol, 329.15 K	0.127
in isopropanol, 333.15 K	0.177
in methanol, 278.25 K	0.0153
in methanol, 282.15 K	0.0221
in methanol, 284.15 K	0.0231
in methanol, 290.25 K	0.0302
in methanol, 294.25 K	0.0373
in methanol, 298.85 K	0.0474
in methanol, 302.25 K	0.0614
in methanol, 308.15 K	0.0895
in methanol, 311.45 K	0.116
in methanol, 315.75 K	0.126
in methanol, 322.25 K	0.204
in methanol, 332.55 K	0.282
in methanol, 333.15 K	0.337
in toluene, 278.55 K	0.0128
in toluene, 283.65 K	0.0211
in toluene, 286.95 K	0.0231
in toluene, 291.15 K	0.029
in toluene, 298.35 K	0.0371
in toluene, 303.15 K	0.0436
in toluene, 308.15 K	0.0666
in toluene, 315.95 K	0.0854
in toluene, 321.65 K	0.108
in toluene, 324.25 K	0.135
in toluene, 326.95 K	0.157
